Results published in the NIST ThermoML archive (doi:10.1021/je060390q).
Numbers after ± are expanded uncertainties.

Columns and labels:
[1] = xn = mol fraction of the nth substance listed; conditions: Maximal bubble pressure
[2] = Maximal bubble pressure

Cc1cccc(C)c1 [1,3-dimethylbenzene] + CC(=O)O
surface tension liquid-gas [mN/m], [1]
Conditions | x2 = 0 | x2 = 0.1001 | x2 = 0.2001 | x2 = 0.3 | x2 = 0.4188 | x2 = 0.4999 | x2 = 0.5999 | x2 = 0.7018 | x2 = 0.7999 | x2 = 0.9
303.15 K | 27.58 ± 0.6 | 27.51 ± 0.6 | 27.4 ± 0.59 | 27.3 ± 0.59 | 27.17 ± 0.58 | 27.07 ± 0.58 | 26.95 ± 0.58 | 26.87 ± 0.57 | 26.71 ± 0.57 | 26.56 ± 0.57
308.15 K | 27.04 ± 0.59 | 26.97 ± 0.58 | 26.87 ± 0.58 | 26.77 ± 0.58 | 26.63 ± 0.57 | 26.55 ± 0.57 | 26.47 ± 0.57 | 26.36 ± 0.56 | 26.19 ± 0.56 | 26.06 ± 0.56
313.15 K | 26.49 ± 0.58 | 26.42 ± 0.57 | 26.33 ± 0.57 | 26.24 ± 0.57 | 26.1 ± 0.56 | 26.03 ± 0.56 | 25.95 ± 0.56 | 25.84 ± 0.55 | 25.68 ± 0.55 | 25.56 ± 0.55
318.15 K | 25.94 ± 0.56 | 25.88 ± 0.56 | 25.78 ± 0.56 | 25.69 ± 0.56 | 25.58 ± 0.55 | 25.5 ± 0.55 | 25.42 ± 0.55 | 25.32 ± 0.54 | 25.17 ± 0.54 | 25.04 ± 0.54
323.15 K | 25.38 ± 0.55 | 25.32 ± 0.55 | 25.24 ± 0.55 | 25.15 ± 0.54 | 25.04 ± 0.54 | 24.98 ± 0.54 | 24.9 ± 0.54 | 24.76 ± 0.53 | 24.65 ± 0.53 | 24.55 ± 0.53
333.15 K | 24.27 ± 0.53 | 24.23 ± 0.53 | 24.16 ± 0.52 | 24.08 ± 0.52 | 23.98 ± 0.52 | 23.92 ± 0.52 | 23.85 ± 0.51 | 23.74 ± 0.51 | 23.65 ± 0.51 | 23.55 ± 0.51
343.15 K | 23.18 ± 0.51 | 23.15 ± 0.51 | 23.08 ± 0.5 | 23.02 ± 0.5 | 22.93 ± 0.5 | 22.88 ± 0.49 | 22.82 ± 0.49 | 22.72 ± 0.49 | 22.63 ± 0.49 | 22.55 ± 0.48

Cc1ccccc1C [1,2-dimethylbenzene]
[2]
Conditions | surface tension liquid-gas [mN/m]
303.15 K | 28.98 ± 0.63
308.15 K | 28.43 ± 0.62
313.15 K | 27.88 ± 0.61
318.15 K | 27.33 ± 0.59
323.15 K | 26.78 ± 0.58
333.15 K | 25.68 ± 0.56
343.15 K | 24.58 ± 0.54

Cc1cccc(C)c1 [1,3-dimethylbenzene]
[2]
Conditions | surface tension liquid-gas [mN/m]
303.15 K | 27.58 ± 0.6
308.15 K | 27.04 ± 0.59
313.15 K | 26.49 ± 0.58
318.15 K | 25.94 ± 0.56
323.15 K | 25.38 ± 0.55
333.15 K | 24.27 ± 0.53
343.15 K | 23.18 ± 0.51

CC(=O)O [acetic acid]
[2]
Conditions | surface tension liquid-gas [mN/m]
303.15 K | 26.4 ± 0.56
308.15 K | 25.91 ± 0.55
313.15 K | 25.41 ± 0.54
318.15 K | 24.91 ± 0.53
323.15 K | 24.42 ± 0.52
333.15 K | 23.44 ± 0.5
343.15 K | 22.45 ± 0.48

CC(=O)O [acetic acid] + Cc1ccccc1C
[1], x1 = 1
Conditions | surface tension liquid-gas [mN/m]
303.15 K | 26.4 ± 0.56
308.15 K | 25.91 ± 0.55
313.15 K | 25.41 ± 0.54
318.15 K | 24.91 ± 0.53
323.15 K | 24.42 ± 0.52
333.15 K | 23.44 ± 0.5
343.15 K | 22.45 ± 0.48

CC(=O)O [acetic acid] + Cc1cccc(C)c1
[1], x1 = 1
Conditions | surface tension liquid-gas [mN/m]
303.15 K | 26.4 ± 0.56
308.15 K | 25.91 ± 0.55
313.15 K | 25.41 ± 0.54
318.15 K | 24.91 ± 0.53
323.15 K | 24.42 ± 0.52
333.15 K | 23.44 ± 0.5
343.15 K | 22.45 ± 0.48

Cc1ccccc1C [1,2-dimethylbenzene] + CC(=O)O
surface tension liquid-gas [mN/m], [1]
Conditions | x2 = 0 | x2 = 0.1001 | x2 = 0.2001 | x2 = 0.3002 | x2 = 0.4 | x2 = 0.5 | x2 = 0.6213 | x2 = 0.7001 | x2 = 0.8 | x2 = 0.9
303.15 K | 28.98 ± 0.63 | 28.81 ± 0.62 | 28.56 ± 0.62 | 28.32 ± 0.61 | 28.07 ± 0.6 | 27.81 ± 0.6 | 27.5 ± 0.59 | 27.29 ± 0.58 | 27.03 ± 0.58 | 26.74 ± 0.57
308.15 K | 28.43 ± 0.62 | 28.26 ± 0.61 | 28.03 ± 0.61 | 27.78 ± 0.6 | 27.54 ± 0.59 | 27.29 ± 0.59 | 26.98 ± 0.58 | 26.78 ± 0.57 | 26.5 ± 0.57 | 26.24 ± 0.56
313.15 K | 27.88 ± 0.61 | 27.71 ± 0.6 | 27.49 ± 0.59 | 27.25 ± 0.59 | 27.01 ± 0.58 | 26.77 ± 0.58 | 26.47 ± 0.57 | 26.26 ± 0.56 | 25.99 ± 0.56 | 25.74 ± 0.55
318.15 K | 27.33 ± 0.59 | 27.17 ± 0.59 | 26.94 ± 0.58 | 26.7 ± 0.58 | 26.47 ± 0.57 | 26.23 ± 0.56 | 25.94 ± 0.56 | 25.74 ± 0.55 | 25.48 ± 0.55 | 25.22 ± 0.54
323.15 K | 26.78 ± 0.58 | 26.62 ± 0.58 | 26.4 ± 0.57 | 26.17 ± 0.57 | 25.95 ± 0.56 | 25.71 ± 0.55 | 25.42 ± 0.55 | 25.22 ± 0.54 | 24.97 ± 0.54 | 24.72 ± 0.53
333.15 K | 25.68 ± 0.56 | 25.54 ± 0.55 | 25.32 ± 0.55 | 25.11 ± 0.54 | 24.89 ± 0.54 | 24.67 ± 0.53 | 24.4 ± 0.52 | 24.2 ± 0.52 | 23.97 ± 0.51 | 23.73 ± 0.51
343.15 K | 24.58 ± 0.54 | 24.45 ± 0.53 | 24.24 ± 0.53 | 24.04 ± 0.52 | 23.84 ± 0.52 | 23.63 ± 0.51 | 23.37 ± 0.5 | 23.18 ± 0.5 | 22.95 ± 0.49 | 22.73 ± 0.49
